Like-named read-outs stand apart in the source and are kept apart here.
What was measured:
[1] = system: Staphylococcus aureus (S. aureus) ATCC 43300; experiment: MIC macrodilution (NCCLS) serial dilution; type: cell-based; parameters: key to growth in MIC tube: “+” denotes visually detectable growth in MIC tube.; “NG” denotes “no growth” in MIC tube; conditions: for MIC: antibiotics
Protocol: (§1) Cell suspension concentration was calculated by measuring the optical density (A610) between 0.6 and 0.9.
(§2) To study efficacy, the challenge was done by determining minimum inhibitory concentration or MIC by employing serial dilutions. The minimum inhibitory concentration or MIC is defined as the minimum concentration of antibiotic that will inhibit the growth of the isolated microorganism. In its normal mode of operation, a bacterial inoculum is inoculated into tubes containing culture media and varying concentrations of the antibiotic to be tested. The tubes are incubated to allow bacterial growth. The MIC is read as the lowest concentration of biocide that inhibited bacterial growth. The interpretation of this MIC depends on the organism/biocide pair being tested, and is made following standard guidelines. MIC testing of the present compositions was conducted via a macrodilution procedure using NCCLS (National Committee for Clinical Laboratory Standards) methods for antibiotic susceptibility testing. The biological experiments were conducted by serial dilution with Muller Hinton media of ten tubes where the bacterial concentration was 10 million cells/ml in each. In addition to the “as is” samples (i.e. 100%), ten 1:1 serial dilutions of each sample were tested to determine the MIC for each sample-inoculum combination. The equivalent percentages of the dilutions are: 100, 50, 25, 12.5, 6.25, 3.125, 1.562, 0.781, 0.391, and 0.195%. These tubes were then incubated at 37±2° C. for approximately 24 hours without agitation. The tubes were then observed for presence and level of visible growth.

[2] = system: Escherichia coli (E. coli) strain procured from a patient; experiment: MIC macrodilution (NCCLS) serial dilution; type: cell-based; parameters: key to growth in MIC tube: “+” denotes visually detectable growth in MIC tube.; “NG” denotes “no growth” in MIC tube; key to MIC: “NE” denotes not effective; conditions: for MIC: antibiotics
Protocol: as §1, §2

Jurkat = conditions: Example 2, FIG. 3, down to dilution 1:256 (18 and 3.64 μM silver and iron)
Protocol: (§3) Cells are plated in a 96 well flat bottom tissue culture plates at 10,000 cells/well. Dilutions and controls are added to wells as follows:
(§4) Vero Cells were grown and tested in complete Dulbeco's Modified Eagles Medium (DMEM) supplemented with 15% Fetal Bovine Serum (FBS), Gentamicine 40 μg/ml, Hepes buffer at pH=7.2, L-Glutamine 2 mM and Sodium pyruvate. MCF-7 were grown and tested in complete RPMI-1640 medium supplemented with 10% FBS Gentamicine 40 μg/ml, Hepes buffer at pH=7.2, L-Glutamine 2 mM and Sodium pyruvate. Plates were incubated in CO2 in a humidified incubator at 37° C. for 72 hrs, and then each well was harvested and counted by Trypan Blue dye exclusion method. Numbers of viable cells were counted on a hemacytometer and adjusted for concentration of cells/ml. For comparative purposes, experiments with Cisplatin ([…], MW=300), a well-known chemotherapeutic drug, at 8 and 4 μM were also conducted.
(§5) The methodology was the same as the one employed for Example 1 above.

MCF-7 = conditions: for % Inhibition: 72 hrs
Protocol: as §3, §4, §5

T-47D = conditions: Example 2, FIG. 3, down to dilution 1:256 (18 and 3.64 μM silver and iron)
Protocol: as §3, §4, §5

[3] = system: BHL-89 (Human B-type EBNA negative lymphoma); conditions: Example 2, FIG. 3, down to dilution 1:256 (18 and 3.64 μM silver and iron)
Protocol: as §3, §4, §5

[4] = system: Vero (Simian Kidney Immortalized Cell Line); experiment: Cytotoxic effect, Trypan Blue viable cell count after 72 hrs; type: cell-based
Protocol: as §3, §4

[5] = S. aureus (ATCC 43300), 100% of initial, approx. 24 hours, 37°C
[6] = 100% of initial, approx. 24 hours, 37°C

Compound | growth in MIC tube [1, 5] | growth in MIC tube ([1]; S. aureus, 0.195% of initial) | growth in MIC tube ([1]; S. aureus, 0.391% of initial) | growth in MIC tube ([1]; S. aureus, 0.781% of initial) | growth in MIC tube ([1]; S. aureus, 1.562% of initial) | growth in MIC tube ([1]; S. aureus, 3.125% of initial) | growth in MIC tube ([1]; S. aureus, 6.25% of initial) | growth in MIC tube ([1]; S. aureus, 12.5% of initial) | growth in MIC tube ([1]; S. aureus, 25% of initial) | growth in MIC tube ([1]; S. aureus, 50% of initial) | growth in MIC tube ([2]; 0.195% of initial) | growth in MIC tube ([2]; 0.391% of initial) | growth in MIC tube ([2]; 0.781% of initial) | growth in MIC tube ([2]; 1.562% of initial) | growth in MIC tube ([2]; 3.125% of initial) | growth in MIC tube ([2]; 6.25% of initial) | growth in MIC tube ([2]; 12.5% of initial) | growth in MIC tube ([2]; 25% of initial) | growth in MIC tube ([2]; 50% of initial) | growth in MIC tube [2, 6] | further results
Gentamicin | NG | NG | NG | NG | NG | NG | NG | NG | NG | NG | + | + | + | + | + | + | + | + | + | + | MIC ([1]; S. aureus): 0.391 ppm; MIC [2]: NE
Cc1onc(-c2ccccc2)c1C(=O)N[C@@H]1C(=O)N2[C@@H]1SC(C)(C)[C@@H]2C(=O)O [OXA, Oxacillin] | NG | + | + | NG | NG | NG | NG | NG | NG | NG | + | + | + | + | + | + | + | + | + | + | MIC ([1]; Staphylococcus aureus, ATCC43300, S. aureus, read-out: MIC): 1.56 µg/mL; MIC [2]: NE
O=P1(N(CCCl)CCCl)NCCCO1 (stereo not shown) [cyclophosphamide] | – | – | – | – | – | – | – | – | – | – | – | – | – | – | – | – | – | – | – | – | cytotoxic effect (in words) (Jurkat): minimum effects; cytotoxic effect (in words) (MCF-7; Example 2, FIG. 3, down to dilution 1:256 (18 and 3.64 μM silver and iron)): minimum effects; cytotoxic effect (in words) (T-47D): does not have any effects; cytotoxic effect (in words) [3]: does not have any effects
N.N.[Cl][Pt][Cl] [Cisplatin] | – | – | – | – | – | – | – | – | – | – | – | – | – | – | – | – | – | – | – | – | % Inhibition ([4]; 4 μM): no effect; % Inhibition ([4]; 4 μM, listed as CIS PLA): −7%; % Inhibition ([4]; 8 μM): 61%; % Inhibition (MCF-7; 4 μM): 72%; % Inhibition (MCF-7; 8 μM): 90%
OO [50 mM H2O2, hydrogen peroxide] | + | + | + | + | + | + | + | + | + | + | + | + | + | + | + | + | + | NG | NG | NG | –

Source: patent US8673366B2, “Chemotherapeutic and prophylactic pharmaceutical compositions” (priority 2004, dated 2014)
